Assay results reported in ChEMBL document CHEMBL5126662, “Expanding the Ajudazol Cytotoxin Scaffold: Insights from Genome Mining, Biosynthetic Investigations, and Novel Derivatives” (J Nat Prod, 2022).
Activity calls are given as the source filed them.

What was measured:
Type in all cases: functional, cell-based
Details in all cases: time 5.0 day
KB 3-1 = assay: Antiproliferative activity against human KB3.1 cells assessed as reduction in cell viability after 5 days by MTT assay
HepG2 = assay: Antiproliferative activity against human HepG2 cells assessed as reduction in cell viability after 5 days by MTT assay
HCT-116 = assay: Antiproliferative activity against human HCT-116 cells assessed as reduction in cell viability after 5 days by MTT assay

Measured: Activity

C=C(C/C=C/C=C/CC/C=C/CN(C)C(=O)/C=C(\C)CO)c1nc(C[C@@H](C)[C@H]2OC(=O)c3c(ccc(C)c3O)[C@@H]2O)co1
active: all assays above

CC(C)=CC(=O)N(C)C/C=C/CC/C=C/C=C/CC(O)(CO)c1nc(C[C@@H](C)[C@H]2OC(=O)c3c(ccc(C)c3O)[C@@H]2O)co1 (some centres undefined)
active: all assays above

C=C(C/C=C/C=C/CC/C=C/CN(C)C(=O)C=C(C)C)c1nc(C[C@@H](C)[C@H]2OC(=O)c3c(ccc(C)c3O)[C@@H]2O[C@@H]2O[C@H](CO)[C@@H](O)[C@H](O)[C@H]2O)co1
active: all assays above

C=C(C/C=C/C=C/CC/C=C/CN(C)C(=O)C=C(C)C)c1nc(C[C@@H](C)[C@H]2OC(=O)c3c(ccc(C)c3O)[C@@H]2O)co1
active: all assays above

CC(C)=CC(=O)N(C)C/C=C/CC/C=C/C=C/C[C@@H](C)c1nc(C[C@@H](C)[C@H]2OC(=O)c3c(ccc(C)c3O)[C@@H]2O)co1
active: all assays above

CC(C)=CC(=O)N(C)C/C=C/CC/C=C/C=C/CC(C)(O)c1nc(C[C@@H](C)[C@H]2OC(=O)c3c(ccc(C)c3O)[C@@H]2O)co1 (some centres undefined)
active: all assays above

CC(C)=CC(=O)N(C)C/C=C/CC/C=C/C=C/CC(O)(CO[C@@H]1O[C@H](CO)[C@@H](O)[C@H](O)[C@H]1O)c1nc(C[C@@H](C)[C@H]2OC(=O)c3c(ccc(C)c3O)[C@@H]2O)co1 (some centres undefined)
active: all assays above

CC(C)=CC(=O)N(C)C/C=C/CC/C=C/C=C/CC(O)(CO[C@@H]1O[C@H](CO)[C@@H](O)[C@@H]1O)c1nc(C[C@@H](C)[C@H]2OC(=O)c3c(ccc(C)c3O)[C@@H]2O)co1 (some centres undefined)
active: all assays above
